Assay results: the CheMixHub viscosity set

Assay: xn = mol fraction of the nth substance listed

N#Cc1ccccc1 + c1ccccc1
Conditions | viscosity [mPa·s]
298.15 K, 101 kPa, x1 = 0.2 | 0.688
298.15 K, 101 kPa, x2 = 0.1681 | 1.098
298.15 K, 101 kPa, x2 = 0.3126 | 0.9985
298.15 K, 101 kPa, x2 = 0.4381 | 0.9214
298.15 K, 101 kPa, x2 = 0.5481 | 0.8456
298.15 K, 101 kPa, x2 = 0.6453 | 0.7942
298.15 K, 101 kPa, x2 = 0.7318 | 0.7145
298.15 K, 101 kPa, x2 = 0.8093 | 0.6845
298.15 K, 101 kPa, x2 = 0.8792 | 0.6157
298.15 K, 101 kPa, x2 = 0.9423 | 0.5987
303.15 K, 101 kPa, x2 = 0.1133 | 1.013
303.15 K, 101 kPa, x2 = 0.1681 | 0.9758
303.15 K, 101 kPa, x2 = 0.2233 | 0.932
303.15 K, 101 kPa, x2 = 0.3126 | 0.9251
303.15 K, 101 kPa, x2 = 0.3302 | 0.866
303.15 K, 101 kPa, x2 = 0.434 | 0.812
303.15 K, 101 kPa, x2 = 0.4381 | 0.8542
303.15 K, 101 kPa, x2 = 0.5349 | 0.766
303.15 K, 101 kPa, x2 = 0.5481 | 0.8025
303.15 K, 101 kPa, x2 = 0.633 | 0.7225
303.15 K, 101 kPa, x2 = 0.6453 | 0.7256
303.15 K, 101 kPa, x2 = 0.7285 | 0.68
303.15 K, 101 kPa, x2 = 0.7318 | 0.6953
303.15 K, 101 kPa, x2 = 0.8093 | 0.6245
303.15 K, 101 kPa, x2 = 0.8214 | 0.6395
303.15 K, 101 kPa, x2 = 0.8792 | 0.5946
303.15 K, 101 kPa, x2 = 0.9119 | 0.5996
303.15 K, 101 kPa, x2 = 0.9423 | 0.5742
303.15 K, 101.32 kPa, x2 = 0.1527 | 1.001
303.15 K, 101.32 kPa, x2 = 0.3165 | 0.902
303.15 K, 101.32 kPa, x2 = 0.4174 | 0.831
303.15 K, 101.32 kPa, x2 = 0.5485 | 0.765
303.15 K, 101.32 kPa, x2 = 0.6569 | 0.715
303.15 K, 101.32 kPa, x2 = 0.7859 | 0.659
303.15 K, 101.32 kPa, x2 = 0.9145 | 0.607
308.15 K, 101 kPa, x1 = 0.2 | 0.605
308.15 K, 101 kPa, x2 = 0.1681 | 0.9852
308.15 K, 101 kPa, x2 = 0.3126 | 0.9457
308.15 K, 101 kPa, x2 = 0.4381 | 0.8352
308.15 K, 101 kPa, x2 = 0.5481 | 0.7648
308.15 K, 101 kPa, x2 = 0.6453 | 0.7054
308.15 K, 101 kPa, x2 = 0.7318 | 0.6582
308.15 K, 101 kPa, x2 = 0.8093 | 0.6214
308.15 K, 101 kPa, x2 = 0.8792 | 0.5743
308.15 K, 101 kPa, x2 = 0.9423 | 0.5621
313.15 K, 101 kPa, x2 = 0.1681 | 0.9756
313.15 K, 101 kPa, x2 = 0.3126 | 0.9143
313.15 K, 101 kPa, x2 = 0.4381 | 0.8215
313.15 K, 101 kPa, x2 = 0.5481 | 0.7236
313.15 K, 101 kPa, x2 = 0.6453 | 0.6974
313.15 K, 101 kPa, x2 = 0.7318 | 0.6318
313.15 K, 101 kPa, x2 = 0.8093 | 0.5845
313.15 K, 101 kPa, x2 = 0.8792 | 0.5413
313.15 K, 101 kPa, x2 = 0.9423 | 0.5128
318.15 K, 101 kPa, x1 = 0.2 | 0.532
323.15 K, 101 kPa, x1 = 0.2 | 0.498

Nc1cccc2ccccc12 + CCCO
viscosity [mPa·s], 101 kPa
Conditions | x1 = 0.02914 | x1 = 0.0566 | x1 = 0.1072 | x1 = 0.1525 | x1 = 0.1936 | x1 = 0.2308 | x1 = 0.2648
293.15 K | 2.371 | 2.516 | 2.846 | 3.22 | 3.628 | 4.054 | 4.498
303.15 K | 1.836 | 1.937 | 2.154 | 2.392 | 2.662 | 2.931 | 3.222
313.15 K | 1.445 | 1.518 | 1.674 | 1.839 | 2.02 | 2.211 | 2.403
323.15 K | 1.153 | 1.21 | 1.324 | 1.443 | 1.57 | 1.7 | 1.838

CC[N+](CC)(CC)CC.[I-] + O
viscosity [mPa·s], 101 kPa
Conditions | x1 = 0.0005 | x1 = 0.0009 | x1 = 0.0018 | x1 = 0.0027 | x1 = 0.0036
293.15 K | 1.004 | 1.018 | 1.037 | 1.051 | 1.074
298.15 K | 0.893 | 0.902 | 0.916 | 0.931 | 0.943
303.15 K | 0.826 | 0.835 | 0.846 | 0.859 | 0.872
308.15 K | 0.697 | 0.703 | 0.713 | 0.723 | 0.733

CCCOCCO + OCCOCCOCCO
101 kPa
Conditions | viscosity [mPa·s]
293.15 K, x1 = 0.0477 | 37.18
293.15 K, x1 = 0.1028 | 32.98
293.15 K, x1 = 0.2026 | 26.12
293.15 K, x1 = 0.3116 | 19.86
293.15 K, x1 = 0.397 | 15.84
293.15 K, x1 = 0.4561 | 13.47
293.15 K, x1 = 0.4963 | 12.06
293.15 K, x1 = 0.549 | 10.39
293.15 K, x1 = 0.5885 | 9.266
293.15 K, x1 = 0.6941 | 6.794
293.15 K, x1 = 0.8011 | 4.892
293.15 K, x1 = 0.9015 | 3.544
293.15 K, x1 = 0.9316 | 3.208
298.15 K, x1 = 0.0552 | 30.77
298.15 K, x1 = 0.1173 | 26.96
298.15 K, x1 = 0.2033 | 22.23
298.15 K, x1 = 0.3039 | 17.54
298.15 K, x1 = 0.4049 | 13.68
298.15 K, x1 = 0.4555 | 12.02
298.15 K, x1 = 0.5186 | 10.2
298.15 K, x1 = 0.5413 | 9.595
298.15 K, x1 = 0.591 | 8.373
298.15 K, x1 = 0.6905 | 6.309
298.15 K, x1 = 0.7968 | 4.592
298.15 K, x1 = 0.8962 | 3.38
298.15 K, x1 = 0.9323 | 3.003
303.15 K, x1 = 0.0529 | 26.52
303.15 K, x1 = 0.1142 | 23.47
303.15 K, x1 = 0.2041 | 19.36
303.15 K, x1 = 0.2979 | 15.66
303.15 K, x1 = 0.4027 | 12.28
303.15 K, x1 = 0.4522 | 10.91
303.15 K, x1 = 0.4952 | 9.838
303.15 K, x1 = 0.5507 | 8.582
303.15 K, x1 = 0.5939 | 7.697
303.15 K, x1 = 0.6941 | 5.899
303.15 K, x1 = 0.7987 | 4.346
303.15 K, x1 = 0.9027 | 3.083
303.15 K, x1 = 0.9431 | 2.664

N#Cc1ccccc1 + CCCCCO
viscosity [mPa·s], 101.33 kPa
Conditions | x1 = 0.1034 | x1 = 0.1623 | x1 = 0.3038 | x1 = 0.387 | x1 = 0.5033 | x1 = 0.6086 | x1 = 0.7205 | x1 = 0.82 | x1 = 0.9162
303.15 K | 2.395 | 2.152 | 1.737 | 1.558 | 1.374 | 1.262 | 1.182 | 1.153 | 1.14
308.15 K | 2.116 | 1.925 | 1.565 | 1.406 | 1.244 | 1.162 | 1.097 | 1.079 | 1.064
313.15 K | 1.895 | 1.723 | 1.412 | 1.283 | 1.14 | 1.07 | 1.017 | 1.01 | 0.993

CCCCn1cc[n+](C)c1.[Cl-] + CC#N
Conditions | viscosity [mPa·s]
308.15 K, 101 kPa, x2 = 0.7003 | 8.47

CCCOCCO + CN(C)C=O
298.15 K, 101 kPa
Conditions | viscosity [mPa·s]
x1 = 0.0076 | 0.821
x1 = 0.0172 | 0.834
x1 = 0.029 | 0.846
x1 = 0.0502 | 0.874
x1 = 0.1029 | 0.948
x1 = 0.1416 | 0.998
x1 = 0.1927 | 1.07
x1 = 0.264 | 1.18
x1 = 0.2944 | 1.223
x1 = 0.3428 | 1.289
x1 = 0.3521 | 1.305
x1 = 0.4414 | 1.458
x1 = 0.5181 | 1.582
x1 = 0.5987 | 1.726
x1 = 0.6457 | 1.809
x1 = 0.6982 | 1.895
x1 = 0.7555 | 1.989
x1 = 0.8533 | 2.164
x1 = 0.9398 | 2.308
x1 = 0.9729 | 2.345

CCCOCCO + CN1CCCC1=O
298.15 K, 101 kPa
Conditions | viscosity [mPa·s]
x1 = 0.0057 | 1.693
x1 = 0.0142 | 1.702
x1 = 0.0273 | 1.719
x1 = 0.0609 | 1.756
x1 = 0.1004 | 1.803
x1 = 0.1386 | 1.847
x1 = 0.1786 | 1.891
x1 = 0.2186 | 1.94
x1 = 0.2578 | 1.996
x1 = 0.2966 | 2.038
x1 = 0.3343 | 2.078
x1 = 0.3852 | 2.132
x1 = 0.4436 | 2.186
x1 = 0.5011 | 2.244
x1 = 0.5422 | 2.28
x1 = 0.6093 | 2.311
x1 = 0.6638 | 2.343
x1 = 0.7673 | 2.355
x1 = 0.8387 | 2.365
x1 = 0.8702 | 2.362
x1 = 0.9445 | 2.359
x1 = 0.976 | 2.354

N#Cc1ccccc1 + OCc1ccccc1
303.15 K, 101 kPa
Conditions | viscosity [mPa·s]
x2 = 0.146 | 1.123
x2 = 0.276 | 1.263
x2 = 0.3251 | 1.366
x2 = 0.4147 | 1.535
x2 = 0.5549 | 1.902
x2 = 0.6387 | 2.184
x2 = 0.7443 | 2.635
x2 = 0.8022 | 2.942
x2 = 0.9039 | 3.595
